According to PubChem BioAssay (NCI):
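GI50 = concentration required for 50% inhibition of growth. TGI: total growth inhibition.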

Columns and labels:
Test in all cases: DTP human tumour cell line panel, 384-well format
786-0 renal = system: 786-0 renal
A498 renal = system: A498 renal
A549 NSCLC = system: A549 NSCLC
ACHN renal = system: ACHN renal
BT-549 breast = system: BT-549 breast
CAKI-1 renal = system: CAKI-1 renal
CCRF-CEM leukemia = system: CCRF-CEM leukemia
DU-145 prostate = system: DU-145 prostate
EKVX NSCLC = system: EKVX NSCLC
HCT-116 colon = system: HCT-116 colon
HCT-15 colon = system: HCT-15 colon
HL-60(TB) leukemia = system: HL-60(TB) leukemia
HOP-62 NSCLC = system: HOP-62 NSCLC
HOP-92 NSCLC = system: HOP-92 NSCLC
HS 578T breast = system: HS 578T breast
HT29 colon = system: HT29 colon
IGROV1 ovarian = system: IGROV1 ovarian
K-562 leukemia = system: K-562 leukemia
KM12 colon = system: KM12 colon
M14 melanoma = system: M14 melanoma
MALME-3M melanoma = system: MALME-3M melanoma
MCF7 breast = system: MCF7 breast
MDA-MB-231 breast = system: MDA-MB-231 breast
MDA-MB-435 melanoma = system: MDA-MB-435 melanoma
MDA-MB-468 breast = system: MDA-MB-468 breast
NCI-H226 lung = system: NCI-H226 lung
NCI-H23 lung = system: NCI-H23 lung
NCI-H322M lung = system: NCI-H322M lung
NCI-H522 lung = system: NCI-H522 lung
NCI/ADR-RES ovarian = system: NCI/ADR-RES ovarian
OVCAR-3 ovarian = system: OVCAR-3 ovarian
OVCAR-4 ovarian = system: OVCAR-4 ovarian
OVCAR-5 ovarian = system: OVCAR-5 ovarian
OVCAR-8 ovarian = system: OVCAR-8 ovarian
PC-3 prostate = system: PC-3 prostate
RPMI-8226 leukemia = system: RPMI-8226 leukemia
SF-268 CNS = system: SF-268 CNS
SF-295 CNS = system: SF-295 CNS
SF-539 CNS = system: SF-539 CNS
SK-MEL-2 melanoma = system: SK-MEL-2 melanoma
SK-MEL-28 melanoma = system: SK-MEL-28 melanoma
SK-OV-3 ovarian = system: SK-OV-3 ovarian
SN12C renal = system: SN12C renal
SNB-19 CNS = system: SNB-19 CNS
SNB-75 CNS = system: SNB-75 CNS
SW-620 colon = system: SW-620 colon
T-47D breast = system: T-47D breast
TK-10 renal = system: TK-10 renal
U251 glioblastoma = system: U251 glioblastoma
UACC-257 melanoma = system: UACC-257 melanoma
UACC-62 melanoma = system: UACC-62 melanoma
UO-31 renal = system: UO-31 renal

For `CC[C@]1(O)C[C@H]2CN(CCc3c([nH]c4ccccc34)[C@@](C(=O)OC)(c3cc4c(cc3OC)N(C)[C@H]3[C@@](O)(C(=O)OC)[C@H](OC(C)=O)[C@]5(CC)C=CCN6CC[C@]43[C@@H]65)C2)C1`, the GI50 ([…]-0 renal) was less than 19.1 nM, the TGI (786-0 renal) was 4130 nM and the GI50 (A498 renal) was less than 19.9 nM. It also gave a GI50 (A549 NSCLC) of less than 21.2 nM, a TGI (A549 NSCLC) of 14100 nM and a TGI (ACHN renal) of 6080 nM. The GI50 (BT-549 breast) was less than 16.2 nM, the TGI (BT-549 breast) was 42.6 nM and the GI50 (CAKI-1 renal) was less than 22.6 nM. The TGI (CAKI-1 renal) was 3880 nM, the GI50 (CCRF-CEM leukemia) was less than 13.6 nM and the TGI (CCRF-CEM leukemia) was less than 18.2 nM. It also gave a GI50 (DU-145 prostate) of less than 18.7 nM, a GI50 (EKVX NSCLC) of 30.4 nM and a TGI (EKVX NSCLC) of 11900 nM. The GI50 (HCT-116 colon) was less than 17.8 nM, the TGI (HCT-116 colon) was 595 nM and the GI50 (HCT-15 colon) was 52 nM. The TGI (HCT-15 colon) was 10400 nM, the TGI (HL-60(TB) leukemia) was less than 11.1 nM and the GI50 (HOP-62 NSCLC) was less than 17.5 nM. It also gave a TGI (HOP-62 NSCLC) of 1250 nM, a GI50 (HOP-92 NSCLC) of 66.4 nM and a TGI (HOP-92 NSCLC) of 8390 nM. The GI50 (HS 578T breast) was less than 13.6 nM, the TGI (HS 578T breast) was less than 20.8 nM and the GI50 (HT29 colon) was 31.5 nM. It also gave a TGI (HT29 colon) of 10700 nM, a GI50 (IGROV1 ovarian) of less than 39 nM and a TGI (IGROV1 ovarian) of 4400 nM. It also gave a TGI (K-562 leukemia) of less than 18.8 nM, a GI50 (KM12 colon) of 33.1 nM and a TGI (KM12 colon) of 13800 nM. It also gave a GI50 (M14 melanoma) of 22.7 nM, a TGI (M14 melanoma) of 13200 nM and a GI50 (MALME-3M melanoma) of less than 23.8 nM. For the same molecule, the TGI (MALME-3M melanoma) was 16400 nM, the GI50 (MCF7 breast) was less than 19.1 nM and the TGI (MCF7 breast) was 3170 nM. It also gave a GI50 (MDA-MB-231 breast) of less than 20.5 nM, a TGI (MDA-MB-231 breast) of 8400 nM and a GI50 (MDA-MB-435 melanoma) of less than 13.7 nM. For the same molecule, the TGI (MDA-MB-435 melanoma) was less than 21.1 nM, the GI50 (MDA-MB-468 breast) was less than 14.9 nM and the TGI (MDA-MB-468 breast) was less than 20.7 nM. The GI50 (NCI-H226 lung) was less than 26.3 nM, the TGI (NCI-H226 lung) was 13000 nM and the GI50 (NCI-H23 lung) was 25.8 nM. It also gave a TGI (NCI-H23 lung) of 79.6 nM, a GI50 (NCI-H322M lung) of less than 24.5 nM and a TGI (NCI-H322M lung) of 20300 nM. The GI50 (NCI-H522 lung) was less than 14.1 nM, the TGI (NCI-H522 lung) was less than 19.6 nM and the GI50 (NCI/ADR-RES ovarian) was 454 nM. For the same molecule, the TGI (NCI/ADR-RES ovarian) was 1020 nM, the GI50 (OVCAR-3 ovarian) was less than 15.1 nM and the TGI (OVCAR-3 ovarian) was less than 26.5 nM. For the same molecule, the GI50 (OVCAR-4 ovarian) was 357 nM, the TGI (OVCAR-4 ovarian) was 14700 nM and the GI50 (OVCAR-5 ovarian) was less than 21.1 nM. For the same molecule, the TGI (OVCAR-5 ovarian) was 16800 nM, the GI50 (OVCAR-8 ovarian) was less than 16.4 nM and the TGI (OVCAR-8 ovarian) was less than 28.4 nM. The GI50 (PC-3 prostate) was less than 19.5 nM, the TGI (PC-3 prostate) was 11800 nM and the GI50 (RPMI-8226 leukemia) was less than 11.6 nM. For the same molecule, the TGI (RPMI-8226 leukemia) was less than 16.8 nM, the GI50 (SF-268 CNS) was less than 20.3 nM and the TGI (SF-268 CNS) was 4860 nM. It also gave a GI50 (SF-295 CNS) of less than 14.8 nM, a TGI (SF-295 CNS) of less than 22.6 nM and a GI50 (SF-539 CNS) of less than 14.3 nM. It also gave a TGI (SF-539 CNS) of less than 21.5 nM, a GI50 (SK-MEL-2 melanoma) of less than 16.2 nM and a TGI (SK-MEL-2 melanoma) of less than 25.4 nM. The GI50 (SK-MEL-28 melanoma) was less than 39 nM, the TGI (SK-MEL-28 melanoma) was 14600 nM and the GI50 (SK-OV-3 ovarian) was less than 20.6 nM. For the same molecule, the TGI (SK-OV-3 ovarian) was 904 nM, the GI50 (SN12C renal) was less than 25 nM and the TGI (SN12C renal) was 14700 nM. The GI50 (SNB-19 CNS) was less than 21.6 nM, the TGI (SNB-19 CNS) was 2300 nM and the GI50 (SNB-75 CNS) was less than 20.6 nM. For the same molecule, the GI50 (SW-620 colon) was less than 20.2 nM, the TGI (SW-620 colon) was 16300 nM and the GI50 (T-47D breast) was 544 nM. It also gave a TGI (T-47D breast) of 19900 nM, a GI50 (TK-10 renal) of less than 26.9 nM and a TGI (TK-10 renal) of 14600 nM. It also gave a GI50 (U251 glioblastoma) of less than 17.7 nM, a GI50 (UACC-257 melanoma) of 412 nM and a TGI (UACC-257 melanoma) of 10600 nM. It also gave a GI50 (UACC-62 melanoma) of less than 17.1 nM, a GI50 (UO-31 renal) of 157 nM and a TGI (UO-31 renal) of 7780 nM.
